Reference: patent publication US20260042731A1, “(2,4-DICHLOROPHENOXY)ACETIC ACID ANALOGS” (CORTEVA AGRISCIENCE LLC, priority 2022, published 2026)
Counter-ions that a name gives are not always drawn.

Legend:
Assay in all cases: Greenhouse post-emergence mixture trials, percent visual control
Assay type in all cases: in vivo
[1] = tested on: Common Lambsquarters (CHEAL)
Velvetleaf (ABUTH) = details: for pest or weed control at 5 g/ha: Arylex 5 g ai or ae/ha alone
Corn (ZEAMX) = tested on: Corn (ZEAMX)
[2] = Abutilon theophrasti, post-emergence, 504 h, read-out: % Control
[3] = Zea mays, post-emergence, 504 h, read-out: % Control
[4] = Chenopodium album, post-emergence, 504 h, read-out: % Control

Compound: Cc1nn(-c2cc(NS(C)(=O)=O)c(Cl)cc2Cl)c(=O)n1C(F)F [Sulfentrazone, N-[2,4-dichloro-5-[4-(difluoromethyl)-4,5-dihydro-3-methyl-5-oxo-1H-1,2,4-triazol-1-yl]phenyl]-methane-sulfonamide, reference compound]
- pest or weed control at 140 g/ha ([1]; Chenopodium album, post-emergence, 504 h, CHEAL, Trial Bridge 3, Sulfentrazone 140 g ai/ha alone (B2 rate 0), 21 DAA): 99%
- pest or weed control at 210 g/ha ([1]; Chenopodium album, post-emergence, 504 h, CHEAL, Trial Bridge 3, Sulfentrazone 210 g ai/ha alone (B2 rate 0), 21 DAA): 88%
- pest or weed control at 420 g/ha ([1]; Chenopodium album, post-emergence, 504 h, CHEAL, Trial Bridge 3, Sulfentrazone 420 g ai/ha alone (B2 rate 0), 21 DAA): 100%
- pest or weed control at 210 g/ha ([1]; Chenopodium album, post-emergence, 504 h, Trial 1, Trt 21, B2 0 g ae/ha, Sulfentrazone 210 g ai or ae/ha alone, CHEAL, 21 DAA): 100%
- pest or weed control at 420 g/ha ([1]; Chenopodium album, post-emergence, 504 h, Trial 1, Trt 25, B2 0 g ae/ha, Sulfentrazone 420 g ai or ae/ha alone, CHEAL, 21 DAA): 99%
- % Control (Velvetleaf (ABUTH); ABUTH, 21 DAA, Sulfentrazone 210 g ai/ha alone (compound rate 0 g ae/ha), Trial Bridge 3): 100%
- pest or weed control at 140 g/ha (Velvetleaf (ABUTH); Abutilon theophrasti, post-emergence, 504 h, ABUTH, 21 DAA, Sulfentrazone 140 g ai/ha alone (compound rate 0 g ae/ha), Trial Bridge 3): 98%
- pest or weed control at 210 g/ha (Velvetleaf (ABUTH); Abutilon theophrasti, post-emergence, 504 h, ABUTH, 21 DAA, Sulfentrazone 210 g ai/ha alone (compound rate 0 g ae/ha), Trial Bridge 3): 100%
- pest or weed control at 216 g/ha (Velvetleaf (ABUTH); Abutilon theophrasti, post-emergence, 504 h, ABUTH, 21 DAA, Sulfentrazone 216 g ai/ha alone (compound rate 0 g ae/ha), Trial Bridge 3): 8%
- pest or weed control at 420 g/ha (Velvetleaf (ABUTH); Abutilon theophrasti, post-emergence, 504 h, Trial 1, Trt 25, B2 0 g ae/ha, Sulfentrazone 420 g ai or ae/ha alone, ABUTH, 21 DAA): 80%
- plant injury at 420 g/ha (Corn (ZEAMX); Zea mays, post-emergence, 504 h, Trial 1 Trt 25, B2 0 g ae/ha, Sulfentrazone 420 g ai or ae/ha alone, ZEAMX, 21 DAA): 25%
- plant injury at 140 g/ha (Corn (ZEAMX); Zea mays, post-emergence, 504 h, ZEAMX, 21 DAA, Sulfentrazone 140 g ai or ae/ha alone (B2 rate 0), Trial Bridge 3): 40%
- plant injury at 210 g/ha (Corn (ZEAMX); Zea mays, post-emergence, 504 h, ZEAMX, 21 DAA, Sulfentrazone 210 g ai or ae/ha alone (B2 rate 0), Trial Bridge 3): 40%

Compound: CP(=O)(O)CCC(N)C(=O)O (centres unmarked) [Glufosinate, 2-amino-4-(hydroxy(methyl)phosphinyl)butanoic acid ammonium salt]
- pest or weed control at 200 g/ha (Velvetleaf (ABUTH); [2]): 5%
- plant injury at 200 g/ha (Corn (ZEAMX); [3]): 5%
- plant injury at 900 g/ha (Corn (ZEAMX); [3]): 10%

Compound: CC(C)N(C)S(=O)(=O)NC(=O)c1cc(-n2c(=O)cc(C(F)(F)F)n(C)c2=O)c(F)cc1Cl [Saflufenacil, reference compound]
- pest or weed control at 50 g/ha ([1]; Chenopodium album, post-emergence, 504 h, Trial 1, Trt 9, B2 0 g ae/ha, Saflufenacil 50 g ai or ae/ha alone, CHEAL, 21 DAA): 95%
- pest or weed control at 75 g/ha ([1]; Chenopodium album, post-emergence, 504 h, Trial 1, Trt 13, B2 0 g ae/ha, Saflufenacil 75 g ai or ae/ha alone, CHEAL, 21 DAA): 98%
- pest or weed control at 25 g/ha (Velvetleaf (ABUTH); Abutilon theophrasti, post-emergence, 504 h, Trial 1, Trt 5, B2 0 g ae/ha, Saflufenacil 25 g ai or ae/ha alone, ABUTH, 21 DAA): 100%
- pest or weed control at 50 g/ha (Velvetleaf (ABUTH); Abutilon theophrasti, post-emergence, 504 h, Trial 1, Trt 9, B2 0 g ae/ha, Saflufenacil 50 g ai or ae/ha alone, ABUTH, 21 DAA): 100%
- pest or weed control at 75 g/ha (Velvetleaf (ABUTH); Abutilon theophrasti, post-emergence, 504 h, Trial 1, Trt 13, B2 0 g ae/ha, Saflufenacil 75 g ai or ae/ha alone, ABUTH, 21 DAA): 100%
- plant injury at 50 g/ha (Corn (ZEAMX); Zea mays, post-emergence, 504 h, Trial 1 Trt 9, B2 0 g ae/ha, Saflufenacil 50 g ai or ae/ha alone, ZEAMX, 21 DAA): 50%
- plant injury at 75 g/ha (Corn (ZEAMX); Zea mays, post-emergence, 504 h, Trial 1 Trt 13, B2 0 g ae/ha, Saflufenacil 75 g ai or ae/ha alone, ZEAMX, 21 DAA): 45%

Compound: CCOc1nc(F)cc2nc(S(=O)(=O)Nc3c(Cl)cccc3Cl)nn12 [Diclosulam]
- pest or weed control at 25 g/ha ([1]; Chenopodium album, post-emergence, 504 h, Trial 2 Trt 13: B2 0 g ae/ha, Diclosulam 25 g ai or ae/ha alone, CHEAL, 21 DAA): 40%
- pest or weed control at 25 g/ha (Velvetleaf (ABUTH); Abutilon theophrasti, post-emergence, 504 h, Trial 2 Trt 13, B2 0 g ae/ha, Diclosulam 25 g ai or ae/ha alone, ABUTH, 21 DAA): 100%
- pest or weed control at 35 g/ha (Velvetleaf (ABUTH); Abutilon theophrasti, post-emergence, 504 h, Trial 2 Trt 16, B2 0 g ae/ha, Diclosulam 35 g ai or ae/ha alone, ABUTH, 21 DAA): 98%
- pest or weed control at 35 g/ha (Velvetleaf (ABUTH); Abutilon theophrasti, post-emergence, 504 h, Trial Bridge 1 Trt 4, ABUTH, D10 0 g ae/ha, diclosulam 35 g ai or ae/ha alone, 21 DAA): 100%
- % Control (Corn (ZEAMX); Trial Bridge 1, ZEAMX, diclosulam 35 g ai or ae/ha alone (compound rate 0), 21 DAA, single replicate): 70%
- plant injury at 25 g/ha (Corn (ZEAMX); Zea mays, post-emergence, 504 h, Trial 2 Trt 13, ZEAMX, B2 0 g ae/ha, Diclosulam 25 g ai or ae/ha alone, 21 DAA): 80%
- plant injury at 35 g/ha (Corn (ZEAMX); Zea mays, post-emergence, 504 h, Trial 2 Trt 16, ZEAMX, B2 0 g ae/ha, Diclosulam 35 g ai or ae/ha alone, 21 DAA): 95%
- plant injury at 35 g/ha (Corn (ZEAMX); Zea mays, post-emergence, 504 h, Trial Bridge 1, ZEAMX, diclosulam 35 g ai or ae/ha alone (compound rate 0), 21 DAA, single replicate): 70%

Compound: O=C(O)CNCP(=O)(O)O [Glyphosate, N-(phosphonomethyl) glycine, reference compound]
- pest or weed control at 375 g/ha [1, 4]: 50%
- pest or weed control at 1120 g/ha [1, 4]: 65%
- pest or weed control at 1680 g/ha [1, 4]: 85%
- pest or weed control at 375 g/ha (Velvetleaf (ABUTH); [2]): 85%
- pest or weed control at 1120 g/ha (Velvetleaf (ABUTH); [2]): 100%
- pest or weed control at 1680 g/ha (Velvetleaf (ABUTH); [2]): 100%
- plant injury at 375 g/ha (Corn (ZEAMX); [3]): 70%

Compound: COC(=O)c1nc(-c2ccc(Cl)c(OC)c2F)cc(N)c1Cl [Arylex, halauxifen-methyl, reference compound]
- pest or weed control at 5 g/ha ([1]; Chenopodium album, post-emergence, 504 h, Trial 2 Trt 19: B2 0 g ae/ha, Arylex 5 g ai or ae/ha alone, CHEAL, 21 DAA): 100%
- pest or weed control at […] ([1]; Chenopodium album, post-emergence, 504 h, Trial 2 Trt 22: B2 0 g ae/ha, Arylex 6.5 g ai or ae/ha alone, CHEAL, 21 DAA): 100%
- % Control ([1]; Trial Bridge 1, CHEAL, mixing partner alone (D10 at 0 g ae/ha), Arylex 5 g ai or ae/ha, 21 DAA): 100%
- pest or weed control at 5 g/ha (Velvetleaf (ABUTH); Abutilon theophrasti, post-emergence, 504 h, Trial 2 Trt 19, B2 0 g ae/ha, ABUTH, 21 DAA): 100%
- pest or weed control at 65 g/ha (Velvetleaf (ABUTH); Abutilon theophrasti, post-emergence, 504 h, Trial 2 Trt 22, B2 0 g ae/ha, Arylex 65 g ai or ae/ha alone, ABUTH, 21 DAA): 100%
- pest or weed control at 5 g/ha (Velvetleaf (ABUTH); Abutilon theophrasti, post-emergence, 504 h, Trial Bridge 1 Trt 7, ABUTH, D10 0 g ae/ha, 21 DAA): 100%
- plant injury at 5 g/ha (Corn (ZEAMX); Zea mays, post-emergence, 504 h, Trial 2 Trt 19, ZEAMX, B2 0 g ae/ha, Arylex 5 g ai or ae/ha alone, 21 DAA): 70%
- plant injury at […] (Corn (ZEAMX); Zea mays, post-emergence, 504 h, Trial 2 Trt 22, ZEAMX, B2 0 g ae/ha, Arylex 6.5 g ai or ae/ha alone, 21 DAA): 75%
- plant injury at 5 g/ha (Corn (ZEAMX); Zea mays, post-emergence, 504 h, Trial Bridge 1, ZEAMX, Arylex 5 g ai or ae/ha alone (compound rate 0), 21 DAA, single replicate): 65%
